Data published in PMC10191619, “Bilirubin gates the TRPM2 channel as a direct agonist to exacerbate ischemic brain damage” (Neuron, 2023).

Experiments:
Format in all cases: cell-based
hTRPM2 R302A/R358A = target: T1, hTRPM2 R302A/R358A (Homo sapiens, UniProt O94759, R302A/R358A); assay: Whole-cell patch-clamp, N-terminal ADPR-binding site mutant; settings: ADPR
T1 construct: expressed in transfected cells; host or cells: HEK293T cells, transient transfection (Lipofectamine 3000), GFP cDNA co-transfected as a separate marker
T1 sequence (O94759 whole entry R302A/R358A): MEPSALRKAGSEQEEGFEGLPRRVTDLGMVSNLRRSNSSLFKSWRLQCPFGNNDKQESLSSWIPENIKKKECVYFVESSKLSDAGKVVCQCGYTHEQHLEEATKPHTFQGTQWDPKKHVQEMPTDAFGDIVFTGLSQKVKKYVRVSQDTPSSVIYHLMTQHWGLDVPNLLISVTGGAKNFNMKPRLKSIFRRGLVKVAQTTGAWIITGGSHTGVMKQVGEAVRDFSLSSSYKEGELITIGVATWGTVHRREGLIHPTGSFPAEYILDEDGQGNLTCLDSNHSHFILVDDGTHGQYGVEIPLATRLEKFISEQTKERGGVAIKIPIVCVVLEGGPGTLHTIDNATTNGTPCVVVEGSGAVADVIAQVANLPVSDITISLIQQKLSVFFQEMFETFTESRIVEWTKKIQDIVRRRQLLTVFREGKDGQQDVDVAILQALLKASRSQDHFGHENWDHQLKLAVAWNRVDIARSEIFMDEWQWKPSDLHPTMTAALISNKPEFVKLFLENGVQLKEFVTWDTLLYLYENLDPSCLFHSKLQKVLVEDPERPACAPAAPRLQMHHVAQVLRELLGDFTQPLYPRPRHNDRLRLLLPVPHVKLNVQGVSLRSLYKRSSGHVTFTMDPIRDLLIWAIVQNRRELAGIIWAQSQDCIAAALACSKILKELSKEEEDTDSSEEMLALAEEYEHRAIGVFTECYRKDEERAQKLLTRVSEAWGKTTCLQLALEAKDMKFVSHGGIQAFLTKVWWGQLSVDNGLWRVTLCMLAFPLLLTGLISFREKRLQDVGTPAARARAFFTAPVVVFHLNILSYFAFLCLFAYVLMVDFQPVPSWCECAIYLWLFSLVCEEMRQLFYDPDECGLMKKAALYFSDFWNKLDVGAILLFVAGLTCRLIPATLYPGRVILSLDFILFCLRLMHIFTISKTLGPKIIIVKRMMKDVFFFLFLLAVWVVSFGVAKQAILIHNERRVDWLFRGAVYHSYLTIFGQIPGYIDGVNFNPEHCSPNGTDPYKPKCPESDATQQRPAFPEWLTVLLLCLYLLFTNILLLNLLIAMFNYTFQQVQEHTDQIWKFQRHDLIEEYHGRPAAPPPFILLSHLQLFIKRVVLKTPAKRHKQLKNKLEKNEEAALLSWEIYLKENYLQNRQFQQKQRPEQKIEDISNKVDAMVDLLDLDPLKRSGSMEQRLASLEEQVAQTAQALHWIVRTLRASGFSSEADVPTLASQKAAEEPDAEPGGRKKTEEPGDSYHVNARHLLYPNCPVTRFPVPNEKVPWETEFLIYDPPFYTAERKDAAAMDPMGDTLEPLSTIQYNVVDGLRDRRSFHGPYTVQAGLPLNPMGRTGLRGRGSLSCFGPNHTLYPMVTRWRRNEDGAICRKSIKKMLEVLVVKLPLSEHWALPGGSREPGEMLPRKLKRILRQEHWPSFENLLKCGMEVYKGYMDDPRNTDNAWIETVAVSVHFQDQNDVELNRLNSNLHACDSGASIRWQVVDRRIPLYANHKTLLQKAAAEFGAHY
Method: (§1) Human embryonic kidney 293 (HEK293) cells with tetracycline-inducible expression of human TRPM2 channel (hTRPM2) were cultured in a mixed medium containing DMEM/ F-12 (Gibco, USA) and 10% fetal bovine serum (Gibco, USA) as well as blasticidin (50 μg/ml, Invivogen, USA) and zeocin (0.4 mg/ml, Invivogen, USA). The expression of hTRPM2 was induced by substituting blasticin and zeocin for tetracycline (1 μg/ml, Sigma, USA) 24-48 hours before use. TRPM2 channel mutants were transiently expressed in HEK293T cells by transfection with using Lipofectamine 3000. Briefly, HEK293T cells were transiently transfected with cDNAs encoding the mutant hTRPM2 channel. The cDNA for GFP was co-transfected as a marker for identification of the transfected cells for electrophysiological experiments 16-24 hours after transfection. […]
(§2) Coronal cortical slices were transferred into the recording chamber and continuously perfused at room temperature with ACSF oxygenated with 95% O2 and 5% CO2. […] For whole-cell or single channel recordings from transfected HEK-293T cells, the coverslips were placed in a culture dish (35 × 35 mm, Sorfa) containing HEPES based extracellular solution (ECS) and recorded by patch-clamp technique. […] Each coverslip was recorded only once with different drug exposures. […]

TRPM2-ΔN/ΔC = target: T2, TRPM2-ΔN/ΔC (Homo sapiens, UniProt O94759); assay: Whole-cell patch-clamp, truncation mutant; settings: ADPR 500 μM
T2 construct: expressed in transfected cells; host or cells: HEK293T cells, transient transfection, GFP cDNA co-transfected as a separate marker
T2 sequence (O94759 1-1449 isoform O94759-2): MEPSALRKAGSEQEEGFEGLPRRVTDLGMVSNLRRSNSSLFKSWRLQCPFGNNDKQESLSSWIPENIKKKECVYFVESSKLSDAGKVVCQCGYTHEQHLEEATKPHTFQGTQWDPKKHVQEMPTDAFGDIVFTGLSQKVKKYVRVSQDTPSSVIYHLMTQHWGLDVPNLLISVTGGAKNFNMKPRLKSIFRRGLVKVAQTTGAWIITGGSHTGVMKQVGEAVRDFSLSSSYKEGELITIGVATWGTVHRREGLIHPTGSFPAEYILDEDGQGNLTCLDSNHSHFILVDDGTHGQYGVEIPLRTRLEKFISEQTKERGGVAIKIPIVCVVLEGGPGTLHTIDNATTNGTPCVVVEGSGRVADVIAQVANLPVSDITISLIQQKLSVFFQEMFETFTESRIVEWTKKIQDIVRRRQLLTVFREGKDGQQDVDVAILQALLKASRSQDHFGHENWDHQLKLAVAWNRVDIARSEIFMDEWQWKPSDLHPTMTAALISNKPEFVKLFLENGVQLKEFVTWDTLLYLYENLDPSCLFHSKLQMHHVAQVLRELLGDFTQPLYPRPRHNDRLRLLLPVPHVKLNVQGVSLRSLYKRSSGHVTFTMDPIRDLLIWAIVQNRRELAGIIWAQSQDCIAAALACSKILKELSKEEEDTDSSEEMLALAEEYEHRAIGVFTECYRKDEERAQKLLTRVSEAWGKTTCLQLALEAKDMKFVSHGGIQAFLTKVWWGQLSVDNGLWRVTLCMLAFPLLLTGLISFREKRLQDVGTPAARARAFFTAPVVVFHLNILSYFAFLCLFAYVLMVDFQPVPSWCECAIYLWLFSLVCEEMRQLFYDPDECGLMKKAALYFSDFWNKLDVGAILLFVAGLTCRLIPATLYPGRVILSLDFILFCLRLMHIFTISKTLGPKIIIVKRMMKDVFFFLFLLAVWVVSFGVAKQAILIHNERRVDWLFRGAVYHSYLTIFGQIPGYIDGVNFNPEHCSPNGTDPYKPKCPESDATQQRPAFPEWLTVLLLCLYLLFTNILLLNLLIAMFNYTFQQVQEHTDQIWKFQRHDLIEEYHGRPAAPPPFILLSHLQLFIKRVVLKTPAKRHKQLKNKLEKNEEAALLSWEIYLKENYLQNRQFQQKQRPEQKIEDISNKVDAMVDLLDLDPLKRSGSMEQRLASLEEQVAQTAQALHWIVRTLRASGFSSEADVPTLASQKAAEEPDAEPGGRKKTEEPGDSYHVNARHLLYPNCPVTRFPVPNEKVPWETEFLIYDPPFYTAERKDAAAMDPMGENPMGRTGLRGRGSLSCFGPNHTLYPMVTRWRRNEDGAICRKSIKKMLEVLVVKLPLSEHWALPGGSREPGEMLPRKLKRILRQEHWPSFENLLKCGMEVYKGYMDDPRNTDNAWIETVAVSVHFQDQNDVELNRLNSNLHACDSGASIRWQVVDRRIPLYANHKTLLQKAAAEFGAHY
Method: as §1, §2

[1] = target: T3, hTRPM2 K928A/D1069A double mutant (Homo sapiens, UniProt O94759, D1069A/K928A); assay: Whole-cell patch-clamp, bilirubin-binding cavity double mutant; settings: intracellular ADPR 500 μM
T3 construct: expressed in transfected cells; host or cells: HEK293T cells, transient transfection, GFP cDNA co-transfected as a separate marker
T3 sequence (O94759 whole entry K928A/D1069A): as the sequence (O94759 whole entry R302A/R358A) above, with A302R, A358R, K928A, D1069A counted along it
Method: as §1, §2

In the case of `Nc1ncnc2c1ncn2C1O[C@H](COP(=O)([O-])OP(=O)(O)OC[C@H]2OC(O)[C@H](O)[C@@H]2O)[C@@H](O)[C@H]1O.O.O.[Na+]` (stereo partly drawn) [ADPR, Adenosine 5ʹ-diphosphoribose sodium salt], the “activation of mutant TRPM2 currents” value (hTRPM2 R302A/R358A) is reported as “failed to evoke currents”, the “activation of mutant TRPM2 currents” value (TRPM2-ΔN/ΔC) is reported as “eliminated the activation” and the “activation of mutant TRPM2 currents” value [1] is reported as “perfectly retained their agonist capacity”.
